Tested on: cells expressing the HSV-TK gene product
Test: Negative selection of pIRES-MAB-TK cultures with ganciclovir
Type: cell-based, Chinese Hamster
Settings: 5 days in the presence of ganciclovir, then an additional 10 days in growth media alone
Experimental: For example, pIRES-MAB-TK cultures are grown for 5 days in the presence of the prodrug ganciclovir (Sigma), which kills cells expressing the HSV-TK gene product. After 5 days of negative selection, cells are grown for an additional 10 days in growth media alone at which time greater than 95% of cells die off. Resistant clones are then picked and expanded in 10 cm petri dishes. Cells are grown for 3 weeks, after which time a portion is reanalyzed for recombinant protein expression, for example, by western blot, RT-PCR, and/or PCR. DNA is analyzed for the presence of the pIRES-pro-TK or pIRES-MAB-TK vector by PCR using any set of primers that can specifically detect the presence or absence of the pIRES vector, for example, according to methods as previously described in Grasso et al. (1998).

Nc1nc(O)c2ncn(COC(CO)CO)c2n1 [ganciclovir]
cells die off: greater than 95%

Source: patent US20060258007A1, “Regulated vectors for selection of cells exhibiting desired phenotypes” (priority 2005, published 2006)
